Test results taken from publication PMC5342227, “Polymer micelle formulation for the proteasome inhibitor drug carfilzomib: Anticancer efficacy and pharmacokinetic studies in mice” (PLoS ONE, 2017).

Key:
[1] = target: T1, proteasome catalytic subunit β5 (Homo sapiens, UniProt P20618+P28074); assay: Immunoblot mobility shift of covalently modified β5 in tumor lysates; set-up: species or system human (H460 xenograft in mice); conditions: positive control: tumor lysates incubated with 50 nM CFZ for 2 h in vitro
T1 construct: tumor tissue lysates (10 μg of total protein) were resolved using 12.5% SDS-PAGE; from tissue; host or cells: excised H460 xenograft tumour tissue from NOD/SCID mice
Description: Briefly, tumor tissue lysates (10 μg of total protein) were resolved using 12.5% SDS-PAGE and transferred onto a PVDF membrane (Bio-Rad Laboratories). Membranes were blocked in 5% milk in Tris-buffered saline containing 0.05% Tween-20 (TBST) and probed with the following antibodies; for β5 (dilution 1:1000, Abcam) and β-actin (dilution 1:1000, Cell Signaling). Membranes were washed with TBST and probed with the corresponding secondary antibodies conjugated with horseradish peroxidase. Bound antibodies were visualized using an enhanced chemiluminescence substrate (Thermo Fisher Scientific).

[2] = set-up: method as in 2 sources, one per row (each row's own in cited_ref): ref 14 = [14]; PMID 23386784; doi:10.2147/BTT.S24580; 14 Nooka A , Gleason C , Casbourne D , Lonial S . Relapsed and refractory lymphoid neoplasms and multiple myeloma with a focus on carfilzomib . Biologics 2013; 7 : 13 – 32 . 10.2147/BTT.S24580 233867 ||| ref 6 = [6]; PMID 21752943; doi:10.1124/dmd.111.039164; 6 Yang J , Wang Z , Fang Y , Jiang J , Zhao F , Wong H , et al Pharmacokinetics, pharmacodynamics, metabolism, distribution, and excretion of carfilzomib in rats . Drug Metab Dispos . 2011; 39 : 1873; conditions: cited from earlier work

In the case of Carfilzomib [CFZ], the “β5 band mobility compared with negative control (DMSO)” value [1] is given as “showed a mobility shift”, the “solubility in aqueous media” value ([2]; background statement, no reference given) is given as “practically insoluble” and the “share of CFZ eliminated from systemic circulation within 30 min” value ([2]; following intravenous injection, peptide backbone cleavage and epoxide hydrolysis) is given as over 95%. The maximum tolerated dose ([2]; mice) was 5 mg/kg.
